Measured values: patent US6342261B1, “Method of preserving foods using noble gases” (American Air Liquide, priority 1992, dated 2002)
“And” between values parts separate entries of the source, which are not always exact repeats. Identical values can stand only once.

Columns and labels:
[1] = tested on: Tyrosinase EC 1.14.18.1; assay: Enzyme activity under gas: tyrosinase; format: biochemical; conditions: 25°, optimal reaction conditions, simple saturation of solution with gas
Procedure: (§1) Sealed cuvettes containing enzymes representative of and in fact important in food product degradation processes were thoroughly purged and filled with assay gases. Injection of gassed substrate solutions started the reactions, which were generally conducted under optimal conditions. These were monitored […] by scanning uv/vis spectrophotometry. All controls were conducted for oxygen, nitrogen and carbon dioxide. A range of temperatures and pressures were employed. An example protocol is appended. Results were expressed in real-time, and transformed to calculate yield and rate differences for the reaction. Over 50 exemplary enzymes were so assayed. Enzymes selected for examination from various products are assayed in precisely the same manner, but always in terms of relative activity in comparison with that product in air or another control gas or gas mixture.
(§2) The follwing Table summarizes the maximum inhibition of enzymes activity realized with various noble gases under various storage conditions.
at 25° and optimal reaction conditions, simple saturation of solution with gas: […]

[2] = target: Glucose oxidase EC 1.1.3.4 (Aspergillus niger, UniProt P13006); assay: Enzyme activity under gas: glucose oxidase; format: biochemical
Procedure: as §1, §2

[3] = target: Gamma-glutamyl transpeptidase EC 2.3.2.2 (Homo sapiens, UniProt P19440); assay: Enzyme activity under gas: gamma-glutamyl transpeptidase; format: biochemical
Procedure: as §1, §2

[4] = tested on: Aspartate aminotransferase (EC 2.6.1.1); assay: Enzyme activity under gas: aspartate aminotransferase; format: biochemical
Procedure: as §1, §2

[5] = tested on: Lipase EC 3.1.1.3; assay: Enzyme activity under gas: lipase; format: biochemical
Procedure: as §1, §2

[6] = tested on: Class V. Isomerases (EC 5); assay: Enzyme activity under gas: Class V isomerases (enzyme not named); format: biochemical
Procedure: as §1, §2

[7] = tested on: Acetyl-CoA synthetase EC 6.2.1.1; assay: Enzyme activity under gas: acetyl-CoA synthetase; format: biochemical
Procedure: as §1, §2

[8] = tested on: Aerobes; assay: Total microorganisms from product trials: aerobes; format: cell-based
Procedure: (§3) Many different products were assayed under a wide variety of temperatures and pressures, packaging treatments, and post-packaging handling. In the general experiment, sterile pouches of impermeable film were filled with freshly-obtained food products under recommended handling regimes. Each was then purged thoroughly with the gas mixture to be tested. Then sealed, the pouch was further treated by cooking, cold storage, or other parameter, or else was not. The sealed pouch was stored at room, cold, or freezing temperature, and periodically sampled for microorganism counts (total, aerobic, anaerobic, Pseudomonas, Lactobacilli). It was also studied for observable deterioration and scored. Some samples were subjected to appropriate chemical analysis. Others were sampled for specific enzyme activities as above. All told, the average experiment consisted of replicate samples of product being assayed for microbial counts, microbial identifications, enyzme activities, chemical oxidation, discoloration, odor and/or taste changes, and final carbon dioxide and oxygen concentrations. Microbes and enzymes known to be important in the degradation of each individual product were selected for examination and scoring from the literature.

[9] = tested on: Anaerobes; assay: Total microorganisms from product trials: anaerobes; format: cell-based
Procedure: as §3

[10] = tested on: Yeasts; assay: Total microorganisms from product trials: yeasts; format: cell-based
Procedure: as §3

[11] = tested on: Molds; assay: Total microorganisms from product trials: molds; format: cell-based
Procedure: as §3

[12] = tested on: Yeasts and molds; assay: Yeast and mold growth on bread and pasta under gases; format: cell-based
Procedure: as §3, with “concentrations.” for “concentrations. Microbes and enzymes known to be important in the degradation of each individual product were selected for examination and scoring from the literature.”

[13] = Chemical oxidation reactions of food components under gases; conditions: even in the presence of oxygen; pigments, phenolics, ascorbic acid of the product section
Description: Other oxygenated species, such as carbon dioxide are reactively destructive.
That is, in accordance with the present invention, it has been discovered that certain gases can directly affect the oxidation rate of chemicals and not merely slow oxidation only as function of physical and inert displacement of oxygen. Generally, the present invention is effected by contacting the chemicals or chemical preparations during at least a protion of storage thereof to a noble gas, a mixture of noble gases or a gaseous mixture containing at least one noble gas.

Gamma-glutamyl transpeptidase EC 2.3.2.2, sequence (P19440 whole entry): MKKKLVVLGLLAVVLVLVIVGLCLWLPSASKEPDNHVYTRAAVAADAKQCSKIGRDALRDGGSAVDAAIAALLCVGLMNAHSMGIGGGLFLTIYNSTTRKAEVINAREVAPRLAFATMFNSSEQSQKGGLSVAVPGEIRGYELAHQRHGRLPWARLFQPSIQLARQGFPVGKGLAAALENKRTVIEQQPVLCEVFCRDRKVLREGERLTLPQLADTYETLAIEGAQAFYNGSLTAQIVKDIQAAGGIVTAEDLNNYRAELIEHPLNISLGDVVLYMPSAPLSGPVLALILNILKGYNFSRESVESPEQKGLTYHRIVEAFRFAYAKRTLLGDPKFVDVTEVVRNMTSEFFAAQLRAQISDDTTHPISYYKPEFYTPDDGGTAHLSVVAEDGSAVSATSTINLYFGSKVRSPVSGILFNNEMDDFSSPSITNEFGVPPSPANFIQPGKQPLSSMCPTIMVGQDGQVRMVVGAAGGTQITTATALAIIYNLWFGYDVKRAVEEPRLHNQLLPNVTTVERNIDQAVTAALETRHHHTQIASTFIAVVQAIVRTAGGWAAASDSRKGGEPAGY
Glucose oxidase EC 1.1.3.4, sequence (P13006 17-605): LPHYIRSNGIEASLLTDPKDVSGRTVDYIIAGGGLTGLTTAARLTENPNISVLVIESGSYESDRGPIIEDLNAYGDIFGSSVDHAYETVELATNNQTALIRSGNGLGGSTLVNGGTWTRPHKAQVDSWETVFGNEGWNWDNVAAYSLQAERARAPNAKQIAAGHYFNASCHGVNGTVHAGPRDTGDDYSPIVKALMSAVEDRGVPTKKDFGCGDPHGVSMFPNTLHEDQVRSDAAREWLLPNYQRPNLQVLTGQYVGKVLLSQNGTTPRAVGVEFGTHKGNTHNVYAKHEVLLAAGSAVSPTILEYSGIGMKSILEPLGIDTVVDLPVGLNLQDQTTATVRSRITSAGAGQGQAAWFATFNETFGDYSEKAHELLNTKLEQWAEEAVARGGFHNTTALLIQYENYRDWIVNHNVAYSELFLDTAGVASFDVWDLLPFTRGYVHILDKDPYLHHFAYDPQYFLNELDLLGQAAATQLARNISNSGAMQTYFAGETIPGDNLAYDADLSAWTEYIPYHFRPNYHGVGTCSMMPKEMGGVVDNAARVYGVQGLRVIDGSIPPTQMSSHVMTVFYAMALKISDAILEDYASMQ

Question: What does the source list for [Ar] [Ar, argon]?
Answer: Result (inhibition vs air), maximum inhibition of enzyme activity [1]: −60%; Result (inhibition), maximum inhibition of enzyme activity [2]: −85.8%; Result (inhibition), maximum inhibition of enzyme activity [3]: −5%; Result (inhibition), maximum inhibition of enzyme activity [4]: −17%; Result, With Lipase [5]: −18%; inhibition (up to) [5]: up to −20%; Result, Class V isomerases [6]: −37%; Result [7]: −75%; % Inhibition Compared to 100% Air ([8]; Carrots): 33%; % Inhibition Compared to 100% Air ([8]; Fish Fillets): 13%; % Inhibition Compared to 100% Air ([8]; Green Beans, Refrigerated): 11%; % Inhibition Compared to 100% Air ([8]; Green Beans, Room Temperature): 2%; % Inhibition Compared to 100% Air ([8]; Ground Beef): 0.4%; % Inhibition Compared to 100% Air ([8]; Lettuce): 0.4%; % Inhibition Compared to 100% Air ([8]; Mixed Salad (Chef Salad)): 12%; % Inhibition Compared to 100% Air ([8]; Shrimp): 1%; % Inhibition Compared to 100% Air ([8]; Steaks): 13%; % Inhibition Compared to 100% Air ([8]; Strawberries): 40%; % Inhibition Compared to 100% Air ([8]; Tomatoes): 96%; % Inhibition Compared to 100% CO2 ([9]; Carrots): 9%; % Inhibition Compared to 100% CO2 ([9]; Fish Fillets): 2%; % Inhibition Compared to 100% CO2 ([9]; Green Beans, Refrigerated): 61%; % Inhibition Compared to 100% CO2 ([9]; Ground Beef): 16%; % Inhibition Compared to 100% Air ([9]; Lettuce): 16%; % Inhibition Compared to 100% CO2 ([9]; Mixed Salad (Chef Salad)): 6% and 1%; % Inhibition Compared to 100% CO2 ([9]; Shrimp): 4%; % Inhibition Compared to 100% CO2 ([9]; Smelt): 30%; % Inhibition Compared to 100% CO2 ([9]; Steaks): 6%; % Inhibition Compared to 100% CO2 ([9]; Tomatoes): 22%; % Inhibition Compared to 100% Air ([10]; Carrots): 49%; % Inhibition Compared to 100% Air ([10]; Fish Fillets): 35%; % Inhibition Compared to 100% Air ([10]; Green Beans, Refrigerated): 20%; % Inhibition Compared to 100% Air ([10]; Green Beans, Room Temperature): 10%; % Inhibition Compared to 100% Air ([10]; Ground Beef): 28%; % Inhibition Compared to 100% Air ([10]; Lettuce): 28%; % Inhibition Compared to 100% Air ([10]; Mixed Salad (Chef Salad)): 47%; % Inhibition Compared to 100% Air ([10]; Shrimp): 2%; % Inhibition Compared to 100% Air ([10]; Smelt): 17%; % Inhibition Compared to 100% Air ([10]; Steaks): 16%; % Inhibition Compared to 100% Air ([10]; Strawberries): 12%; % Inhibition Compared to 100% Air ([10]; Tomatoes): 38%; % Inhibition Compared to 100% Air ([11]; Carrots): 20%; % Inhibition Compared to 100% Air ([11]; Fish Fillets): 15%; % Inhibition Compared to 100% Air ([11]; Green Beans, Refrigerated): 25%; % Inhibition Compared to 100% Air ([11]; Green Beans, Room Temperature): 15%; % Inhibition Compared to 100% Air ([11]; Ground Beef): 4%; % Inhibition Compared to 100% Air ([11]; Lettuce): 4%; % Inhibition Compared to 100% Air ([11]; Mixed Salad (Chef Salad)): 2%; % Inhibition Compared to 100% Air ([11]; Shrimp): 5%; % Inhibition Compared to 100% Air ([11]; Smelt): 22%; % Inhibition Compared to 100% Air ([11]; Steaks): 27%; % Inhibition Compared to 100% Air ([11]; Strawberries): 80%; % Inhibition Compared to 100% Air ([11]; Tomatoes): 51%

Question: Which “Result (inhibition vs air), maximum inhibition of enzyme activity” value [1] does the source give for O=C=O [CO2, carbon dioxide, reference compound] here?
Answer: The value was 0%.

Question: And the “% Inhibition Compared to 100% Air” value ([8]; Carrots)?
Answer: Its value is 24%.

Question: And the “% Inhibition Compared to 100% Air” value ([8]; Fish Fillets)?
Answer: The value was 14%.

Question: And the “% Inhibition Compared to 100% Air” value ([8]; Green Beans, Refrigerated)?
Answer: Its value is 26%.

Question: And the “% Inhibition Compared to 100% Air” value ([8]; Green Beans, Room Temperature)?
Answer: The value was 10%.

Question: What about the “% Inhibition Compared to 100% Air” value ([8]; Ground Beef) of the same compound?
Answer: Its value is 9%.

Question: What about the “% Inhibition Compared to 100% Air” value ([8]; Lettuce) of the same compound?
Answer: The value was 9%.

Question: What about the “% Inhibition Compared to 100% Air” value ([8]; Mixed Salad (Chef Salad)) of the same compound?
Answer: The value was 2%.

Question: What about the “% Inhibition Compared to 100% Air” value ([8]; Shrimp) of the same compound?
Answer: Its value is 4%.

Question: What about the “% Inhibition Compared to 100% Air” value ([8]; Steaks) of the same compound?
Answer: Its value is 21%.

Question: And the “% Inhibition Compared to 100% Air” value ([8]; Strawberries)?
Answer: The value was 48%.

Question: And the “% Inhibition Compared to 100% Air” value ([8]; Tomatoes)?
Answer: The value was 92%.

Question: What about the “% Inhibition Compared to 100% Air” value ([10]; Carrots) of the same compound?
Answer: Its value is 35%.

Question: And the “% Inhibition Compared to 100% Air” value ([10]; Fish Fillets)?
Answer: Its value is 36%.

Question: And the “% Inhibition Compared to 100% Air” value ([10]; Green Beans, Refrigerated)?
Answer: The value was 55%.

Question: What about the “% Inhibition Compared to 100% Air” value ([10]; Green Beans, Room Temperature) of the same compound?
Answer: The value was 19%.

Question: And the “% Inhibition Compared to 100% Air” value ([10]; Ground Beef)?
Answer: Its value is 4%.

Question: And the “% Inhibition Compared to 100% Air” value ([10]; Lettuce)?
Answer: Its value is 4%.

Question: What about the “% Inhibition Compared to 100% Air” value ([10]; Mixed Salad (Chef Salad)) of the same compound?
Answer: The value was 63%.

Question: What about the “% Inhibition Compared to 100% Air” value ([10]; Shrimp) of the same compound?
Answer: Its value is 8%.

Question: What about the “% Inhibition Compared to 100% Air” value ([10]; Smelt) of the same compound?
Answer: The value was 0.8%.

Question: What about the “% Inhibition Compared to 100% Air” value ([10]; Steaks) of the same compound?
Answer: The value was 15%.

Question: What about the “% Inhibition Compared to 100% Air” value ([10]; Strawberries) of the same compound?
Answer: Its value is 32%.

Question: What about the “% Inhibition Compared to 100% Air” value ([10]; Tomatoes) of the same compound?
Answer: Its value is 80%.

Question: And the “% Inhibition Compared to 100% Air” value ([11]; Carrots)?
Answer: The value was 3%.

Question: What about the “% Inhibition Compared to 100% Air” value ([11]; Fish Fillets) of the same compound?
Answer: The value was 18%.

Question: What about the “% Inhibition Compared to 100% Air” value ([11]; Green Beans, Refrigerated) of the same compound?
Answer: Its value is 2%.

Question: What about the “% Inhibition Compared to 100% Air” value ([11]; Green Beans, Room Temperature) of the same compound?
Answer: The value was 3%.

Question: What about the “% Inhibition Compared to 100% Air” value ([11]; Ground Beef) of the same compound?
Answer: The value was 2%.

Question: What about the “% Inhibition Compared to 100% Air” value ([11]; Lettuce) of the same compound?
Answer: The value was 2%.

Question: And the “% Inhibition Compared to 100% Air” value ([11]; Mixed Salad (Chef Salad))?
Answer: Its value is 4%.

Question: What about the “% Inhibition Compared to 100% Air” value ([11]; Shrimp) of the same compound?
Answer: Its value is 2%.

Question: What about the “% Inhibition Compared to 100% Air” value ([11]; Smelt) of the same compound?
Answer: Its value is 29%.

Question: And the “% Inhibition Compared to 100% Air” value ([11]; Steaks)?
Answer: The value was 17%.

Question: What about the “% Inhibition Compared to 100% Air” value ([11]; Strawberries) of the same compound?
Answer: The value was 100%.

Question: And the “% Inhibition Compared to 100% Air” value ([11]; Tomatoes)?
Answer: The value was 62%.

Question: And the “depression of yeasts and molds with respect to nitrogen or air” value ([12]; Bread)?
Answer: Its value is “may be superior”.

Question: What about the “depression of yeasts and molds with respect to nitrogen or air” value ([12]; Pasta) of the same compound?
Answer: The value was “may be superior”.

Question: Which “Result (inhibition vs air), maximum inhibition of enzyme activity” value [1] does the source give for N#N [Gas N2, nitrogen, reference compound] here?
Answer: The value was 0%.

Question: And the “inhibition of chemical oxidation, order of effect of the gases” value [13]?
Answer: The value was “has no such ability”.
